In PubChem BioAssay (NCI):
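In this assay, cells in 96-well plates receive the compound at five concentrations for 48 hours. Endpoints are linearly interpolated between the surrounding concentrations. TGI is the concentration that stops growth completely.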

Columns and labels:
Assay in all cases: growth of human tumour cells (NCI), 48 h
OVCAR-3 ovarian = tested on: OVCAR-3 ovarian
UACC-257 melanoma = tested on: UACC-257 melanoma
SF-539 CNS = tested on: SF-539 CNS
NCI-H226 lung = tested on: NCI-H226 lung
SK-MEL-5 melanoma = tested on: SK-MEL-5 melanoma
PC-3 prostate = tested on: PC-3 prostate
NCI-H460 lung = tested on: NCI-H460 lung
DU-145 prostate = tested on: DU-145 prostate
CAKI-1 renal = tested on: CAKI-1 renal
HCT-116 colon = tested on: HCT-116 colon
MDA-N = tested on: MDA-N
786-0 renal = tested on: 786-0 renal
MDA-MB-231 breast = tested on: MDA-MB-231 breast

In the case of `CC(C)(C)C1=C(Br)C(F)(C(C)(C)C)OP1(=O)c1ccccc1` (stereo not given), the TGI (OVCAR-3 ovarian) was 28.8 µM, the TGI (UACC-257 melanoma) was 30.9 µM and the TGI (SF-539 CNS) was 33.2 µM. For the same compound, the TGI (NCI-H226 lung) was 31 µM, the TGI (SK-MEL-5 melanoma) was 22.9 µM and the TGI (PC-3 prostate) was 32 µM. For the same compound, the TGI (NCI-H460 lung) was 35.6 µM, the TGI (DU-145 prostate) was 32 µM and the TGI (CAKI-1 renal) was 25.8 µM. It also gave a TGI (HCT-116 colon) of 31.8 µM, a TGI (MDA-N) of 34.7 µM and a TGI (786-0 renal) of 29.6 µM.
`CCCn1cc2c(=O)[nH]c(SC)nc2n1` gave a TGI (UACC-257 melanoma) of over 100 µM, a TGI (SF-539 CNS) of over 100 µM and a TGI (NCI-H226 lung) of 89.1 µM. For the same compound, the TGI (SK-MEL-5 melanoma) was over 100 µM, the TGI (NCI-H460 lung) was over 100 µM and the TGI (CAKI-1 renal) was over 100 µM. The TGI (HCT-116 colon) was over 100 µM.
`Cc1ccc2c(c1)nc1n2C(c2c(F)cccc2F)SC1` (stereo not given) showed a TGI (OVCAR-3 ovarian) of over 100 µM, a TGI (MDA-MB-231 breast) of over 100 µM and a TGI (UACC-257 melanoma) of over 100 µM. For the same compound, the TGI (SF-539 CNS) was 59.2 µM, the TGI (NCI-H226 lung) was over 100 µM and the TGI (PC-3 prostate) was over 100 µM. For the same compound, the TGI (NCI-H460 lung) was over 100 µM, the TGI (CAKI-1 renal) was over 100 µM and the TGI (HCT-116 colon) was 72.3 µM. The TGI (MDA-N) was over 100 µM and the TGI (786-0 renal) was over 100 µM.
`O=C(OC1=CCN(Br)C1=O)C1=C(O)C(=O)N(Br)C1` was tested, and the TGI (OVCAR-3 ovarian) was 51.6 µM, the TGI (MDA-MB-231 breast) was 86.3 µM and the TGI (UACC-257 melanoma) was 87.6 µM. The TGI (NCI-H226 lung) was over 100 µM, the TGI (SK-MEL-5 melanoma) was 33.5 µM and the TGI (PC-3 prostate) was over 100 µM. It also gave a TGI (NCI-H460 lung) of over 100 µM, a TGI (DU-145 prostate) of over 100 µM and a TGI (CAKI-1 renal) of over 100 µM. For the same compound, the TGI (HCT-116 colon) was 35.6 µM and the TGI (786-0 renal) was 30.4 µM.
Work on `Cc1ccc2nc3ccccc3c(C3C4C(=O)N(c5ccc(F)cc5)C(=O)C4ON3C(C(N)=O)c3ccccc3)c2c1` (stereo not given) yielded a TGI (OVCAR-3 ovarian) of 71.6 µM, a TGI (MDA-MB-231 breast) of over 100 µM and a TGI (UACC-257 melanoma) of over 100 µM. It also gave a TGI (SF-539 CNS) of 72.1 µM, a TGI (NCI-H226 lung) of over 100 µM and a TGI (PC-3 prostate) of over 100 µM. It also gave a TGI (NCI-H460 lung) of over 100 µM, a TGI (DU-145 prostate) of over 100 µM and a TGI (CAKI-1 renal) of over 100 µM. For the same compound, the TGI (HCT-116 colon) was over 100 µM and the TGI (786-0 renal) was over 100 µM.
`C=C(/C=C/C=C(\C)CCC=C(C)C)[C@@H]1CC[C@]2([C@H](CCCO)/C(=C(/C)C=O)CC[C@]2(C)O)[C@@H]1O` showed a TGI (UACC-257 melanoma) of 59.5 µM, a TGI (SF-539 CNS) of 25.1 µM and a TGI (NCI-H226 lung) of 56.2 µM. The TGI (SK-MEL-5 melanoma) was 53.1 µM, the TGI (NCI-H460 lung) was 26.5 µM and the TGI (CAKI-1 renal) was 60.9 µM.
`CCOC(=O)C12CCC(=O)N1N(C)c1ncccc1N2` (stereo not given) gave a TGI (OVCAR-3 ovarian) of over 100 µM, a TGI (MDA-MB-231 breast) of over 100 µM and a TGI (UACC-257 melanoma) of over 100 µM. It also gave a TGI (SF-539 CNS) of over 100 µM, a TGI (NCI-H226 lung) of over 100 µM and a TGI (SK-MEL-5 melanoma) of over 100 µM. It also gave a TGI (NCI-H460 lung) of over 100 µM, a TGI (DU-145 prostate) of over 100 µM and a TGI (CAKI-1 renal) of over 100 µM. The TGI (HCT-116 colon) was over 100 µM, the TGI (MDA-N) was over 100 µM and the TGI (786-0 renal) was over 100 µM.
Work on `OC1NC2Nc3ccccc3NC2NC1O` (stereo not given) yielded a TGI (OVCAR-3 ovarian) of over 100 µM, a TGI (MDA-MB-231 breast) of over 100 µM and a TGI (UACC-257 melanoma) of over 100 µM. The TGI (SF-539 CNS) was over 100 µM, the TGI (NCI-H226 lung) was over 100 µM and the TGI (SK-MEL-5 melanoma) was over 100 µM. It also gave a TGI (PC-3 prostate) of over 100 µM, a TGI (NCI-H460 lung) of over 100 µM and a TGI (DU-145 prostate) of over 100 µM. It also gave a TGI (CAKI-1 renal) of over 100 µM, a TGI (HCT-116 colon) of over 100 µM and a TGI (786-0 renal) of over 100 µM.
Work on `ClCc1nc2ccccc2[nH]1` yielded a TGI (OVCAR-3 ovarian) of over 100 µM, a TGI (MDA-MB-231 breast) of over 100 µM and a TGI (UACC-257 melanoma) of over 100 µM. The TGI (SF-539 CNS) was over 100 µM, the TGI (NCI-H226 lung) was over 100 µM and the TGI (SK-MEL-5 melanoma) was over 100 µM. For the same compound, the TGI (PC-3 prostate) was over 100 µM, the TGI (NCI-H460 lung) was over 100 µM and the TGI (DU-145 prostate) was over 100 µM. It also gave a TGI (CAKI-1 renal) of over 100 µM, a TGI (HCT-116 colon) of over 100 µM and a TGI (786-0 renal) of over 100 µM.
`CCOC(=O)c1c(O)cn2c1[nH]c1cccc3cccc2c31` was tested, and the TGI (MDA-MB-231 breast) was over 100 µM, the TGI (UACC-257 melanoma) was over 100 µM and the TGI (NCI-H226 lung) was over 100 µM. It also gave a TGI (SK-MEL-5 melanoma) of over 100 µM, a TGI (PC-3 prostate) of over 100 µM and a TGI (NCI-H460 lung) of over 100 µM. The TGI (DU-145 prostate) was over 100 µM, the TGI (CAKI-1 renal) was over 100 µM and the TGI (HCT-116 colon) was over 100 µM. It also gave a TGI (MDA-N) of over 100 µM and a TGI (786-0 renal) of over 100 µM.
`COC(=O)C(Cc1c[nH]c2ccccc12)NC(=O)C(Cc1cnc[nH]1)NC(=O)C1CCC(=O)N1C(=O)OCc1ccccc1` (stereo not given) was tested, and the TGI (UACC-257 melanoma) was over 100 µM, the TGI (NCI-H226 lung) was over 100 µM and the TGI (SK-MEL-5 melanoma) was over 100 µM. For the same compound, the TGI (PC-3 prostate) was over 100 µM, the TGI (NCI-H460 lung) was over 100 µM and the TGI (HCT-116 colon) was over 100 µM. For the same compound, the TGI (MDA-N) was over 100 µM and the TGI (786-0 renal) was over 100 µM.
`S=P1(Sc2ccccc2)Oc2ccc3ccccc3c2-c2c(ccc3ccccc23)O1` showed a TGI (OVCAR-3 ovarian) of over 100 µM, a TGI (UACC-257 melanoma) of over 100 µM and a TGI (SF-539 CNS) of over 100 µM. The TGI (NCI-H226 lung) was over 100 µM, the TGI (SK-MEL-5 melanoma) was over 100 µM and the TGI (NCI-H460 lung) was over 100 µM. For the same compound, the TGI (CAKI-1 renal) was over 100 µM and the TGI (HCT-116 colon) was over 100 µM.
Work on `c1ccc2c3c(ccc2c1)-c1[nH]ncc1CCO3` yielded a TGI (OVCAR-3 ovarian) of over 82.1 µM, a TGI (UACC-257 melanoma) of 83.6 µM and a TGI (SF-539 CNS) of 69.8 µM. For the same compound, the TGI (SK-MEL-5 melanoma) was over 71.3 µM, the TGI (NCI-H460 lung) was over 88 µM and the TGI (CAKI-1 renal) was over 64 µM. The TGI (HCT-116 colon) was over 88.5 µM.
For `NC1=Nc2ccccc2Sc2nncn21`, the TGI (OVCAR-3 ovarian) was over 100 µM, the TGI (MDA-MB-231 breast) was over 100 µM and the TGI (UACC-257 melanoma) was over 100 µM. It also gave a TGI (SF-539 CNS) of over 100 µM, a TGI (NCI-H226 lung) of over 100 µM and a TGI (SK-MEL-5 melanoma) of over 100 µM. The TGI (PC-3 prostate) was over 100 µM, the TGI (NCI-H460 lung) was over 100 µM and the TGI (DU-145 prostate) was over 100 µM. It also gave a TGI (CAKI-1 renal) of over 100 µM, a TGI (HCT-116 colon) of over 100 µM and a TGI (786-0 renal) of over 100 µM.
`COC(=O)C1CCC(=O)N1C(c1ccc(OC)cc1)c1cc(OC)c(OC)c(OC)c1` (stereo not given) was tested, and the TGI (OVCAR-3 ovarian) was 0.597 µM, the TGI (MDA-MB-231 breast) was 64.9 µM and the TGI (UACC-257 melanoma) was over 100 µM. It also gave a TGI (NCI-H226 lung) of 2.11 µM, a TGI (SK-MEL-5 melanoma) of 3.43 µM and a TGI (PC-3 prostate) of over 37.4 µM. It also gave a TGI (DU-145 prostate) of 0.771 µM, a TGI (CAKI-1 renal) of over 100 µM and a TGI (MDA-N) of 1.97 µM. For the same compound, the TGI (786-0 renal) was over 100 µM.
For `CC(C)(C)OC(=O)NCC(CNC(=O)OC(C)(C)C)C(N)=O`, the TGI (OVCAR-3 ovarian) was over 100 µM, the TGI (MDA-MB-231 breast) was over 100 µM and the TGI (UACC-257 melanoma) was over 100 µM. It also gave a TGI (SF-539 CNS) of over 100 µM, a TGI (NCI-H226 lung) of over 100 µM and a TGI (SK-MEL-5 melanoma) of over 100 µM. For the same compound, the TGI (PC-3 prostate) was over 100 µM, the TGI (NCI-H460 lung) was over 100 µM and the TGI (DU-145 prostate) was over 100 µM. For the same compound, the TGI (CAKI-1 renal) was over 100 µM, the TGI (HCT-116 colon) was over 100 µM and the TGI (786-0 renal) was over 100 µM.
Work on `CC(C)(C)c1ccc2c(c1)OP1(Oc3c(Cl)cc(Cl)c4cccnc34)(O2)Oc2ccc(C(C)(C)C)cc2O1` yielded a TGI (OVCAR-3 ovarian) of 13.3 µM, a TGI (UACC-257 melanoma) of 14.2 µM and a TGI (SF-539 CNS) of 21.2 µM. It also gave a TGI (NCI-H226 lung) of 29.1 µM, a TGI (SK-MEL-5 melanoma) of 22.1 µM and a TGI (NCI-H460 lung) of 16.2 µM. For the same compound, the TGI (CAKI-1 renal) was 9.58 µM and the TGI (HCT-116 colon) was 17.4 µM.
